Reference: patent US8987314B2, “Amide, urea or sulfone amide linked benzothiazole inhibitors of endothelial lipase” (Bristol-Myers Squibb Company, priority 2012, dated 2015)
Where two headings read alike, the source gives them in different places.

Columns and labels:
Endothelial lipase (EL) = Endothelial lipase (EL) (Homo sapiens (Human), UniProt Q9Y5X9); assay: EL assay: endothelial lipase activity with fluorescent substrate A10070 in DMPG vesicles; type: biochemical
How it was run: (§1)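 Compounds were preincubated with enzyme for 30 min at 37° C before FRET-substrate vesicles (A10070 in DMPG, 0.11 mole fraction) were added. Reaction rates were obtained from the 300–900 sec slope of fluorescence at 490/530 nm.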

hepatic lipase (HL) = hepatic lipase (HL) (Homo sapiens (Human), UniProt P11150); assay: HL assay: hepatic lipase activity with fluorescent substrate A10070 in DMPG vesicles; type: biochemical
Sequence of hepatic lipase (HL) (P11150 23-499, species assumed): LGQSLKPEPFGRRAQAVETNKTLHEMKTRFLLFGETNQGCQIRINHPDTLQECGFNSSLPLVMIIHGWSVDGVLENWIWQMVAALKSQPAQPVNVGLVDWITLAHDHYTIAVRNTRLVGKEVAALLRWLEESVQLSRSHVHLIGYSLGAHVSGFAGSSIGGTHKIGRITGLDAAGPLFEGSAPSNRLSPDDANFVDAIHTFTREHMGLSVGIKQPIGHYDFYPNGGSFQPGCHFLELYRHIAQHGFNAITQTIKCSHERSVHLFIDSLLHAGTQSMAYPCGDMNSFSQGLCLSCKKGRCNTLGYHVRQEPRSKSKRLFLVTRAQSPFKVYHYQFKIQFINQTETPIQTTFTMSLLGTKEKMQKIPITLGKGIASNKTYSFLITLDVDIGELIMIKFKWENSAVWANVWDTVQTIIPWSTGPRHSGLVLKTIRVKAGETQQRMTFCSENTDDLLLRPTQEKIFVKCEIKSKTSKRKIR
How it was run: as §1

[1] = EL from conditioned media of HT-1080 cells, 30 min incubation with compound at 37° C., A10070/DMPG vesicles
[2] = HL partially purified from conditioned media of COS cells, 30 min incubation with compound at 37° C., A10070/DMPG vesicles

Sequence of Endothelial lipase (EL) (Q9Y5X9 21-500): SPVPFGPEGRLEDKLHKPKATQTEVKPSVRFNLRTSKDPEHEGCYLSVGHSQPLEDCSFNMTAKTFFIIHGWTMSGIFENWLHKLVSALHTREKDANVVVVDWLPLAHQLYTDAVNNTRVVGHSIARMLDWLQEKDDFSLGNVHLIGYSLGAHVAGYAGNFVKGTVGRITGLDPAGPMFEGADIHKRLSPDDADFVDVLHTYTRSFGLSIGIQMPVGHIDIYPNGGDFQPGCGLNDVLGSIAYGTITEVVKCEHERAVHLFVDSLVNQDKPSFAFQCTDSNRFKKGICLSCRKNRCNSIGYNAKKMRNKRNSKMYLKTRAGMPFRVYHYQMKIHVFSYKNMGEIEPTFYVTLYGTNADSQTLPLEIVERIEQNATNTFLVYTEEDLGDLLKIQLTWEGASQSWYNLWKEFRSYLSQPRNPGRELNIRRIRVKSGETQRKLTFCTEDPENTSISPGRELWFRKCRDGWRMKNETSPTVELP

CS(=O)(=O)C(C(=O)NCCS(N)(=O)=O)c1nc2cc(-c3ncccn3)ccc2s1 (centres unmarked) [Example B374, 2-methanesulfonyl-2-[5-(pyrimidin-2-yl)-1,3-benzothiazol-2-yl]-N-(2-sulfamoylethyl)acetamide]
IC50 (Endothelial lipase (EL)): 0.8 nM | IC50 (hepatic lipase (HL)): 23.7 nM

NS(=O)(=O)CCNC(=O)C(c1nc2ccc(-c3ccnc(O)c3F)cc2s1)S(=O)(=O)CCC(F)(F)F (centres unmarked) [Example B375, 2-[6-(3-fluoro-2-hydroxy-pyridin-4-yl)-1,3-benzothiazol-2-yl]-N-(2-sulfamoylethyl)-2-(3,3,3-trifluoropropanesulfonyl)a-cetamide]
IC50 (Endothelial lipase (EL)): 14 nM | IC50 (hepatic lipase (HL)): 787 nM

COCc1ccc(-c2ccc3sc(C(C(=O)NCCS(N)(=O)=O)S(C)(=O)=O)nc3c2)cc1 (centres unmarked) [Example B378, 2-methanesulfonyl-2-{5-[4-(methoxymethyl)phen-yl]-1,3-benzothiazol-2-yl}-N-(2-sulfamoylethyl)acetamide]
IC50 (Endothelial lipase (EL)): 0.7 nM | IC50 (hepatic lipase (HL)): 6.7 nM

CC(=O)Nc1cccc(-c2ccc3sc(C(C(=O)NCCS(N)(=O)=O)S(C)(=O)=O)nc3c2)c1 (centres unmarked) [Example B379, 2-[5-(3-acetamidophenyl)-1,3-benzothiazol-2-yl]-2-methanesulfonyl-N-(2-sulfamoylethyl)acetamide]
IC50 (Endothelial lipase (EL)): 0.5 nM | IC50 (hepatic lipase (HL)): 83.7 nM

CS(=O)(=O)C(C(=O)NCCS(N)(=O)=O)c1nc2cc(-c3cccc(F)n3)ccc2s1 (centres unmarked) [Example B380, 2-[5-(6-fluoropyridin-2-yl)-1,3-benzothiazol-2-yl]-2-methanesulfonyl-N-(2-sulfamoylethyl)acetamide]
IC50 (Endothelial lipase (EL)): 2 nM | IC50 (hepatic lipase (HL)): 18.5 nM

CS(=O)(=O)C(C(=O)NCCS(N)(=O)=O)c1nc2cc(-c3ccncc3F)ccc2s1 (centres unmarked) [Example B381, 2-[5-(3-fluoropyridin-4-yl)-1,3-benzothiazol-2-yl]-2-methanesulfonyl-N-(2-sulfamoylethyl)acetamide]
IC50 (Endothelial lipase (EL)): 1.1 nM | IC50 (hepatic lipase (HL)): 40.2 nM

CC(C)(C)OC(=O)N1CC=C(c2ccc3sc(C(C(=O)NCCS(N)(=O)=O)S(C)(=O)=O)nc3c2)CC1 (centres unmarked) [Example B382, tert-butyl 4-(2-{methanesulfonyl[(2-sulfa-moylethyl)carbamoyl]meth-yl}-1,3-benzothiazol-5-yl)-1,2,3,6-tetrahydropyridine-1-carboxylate]
IC50 (Endothelial lipase (EL)): 3.1 nM | IC50 (hepatic lipase (HL)): 36.5 nM

CS(=O)(=O)C(C(=O)NCCS(N)(=O)=O)c1nc2cc(-c3cccnc3F)ccc2s1 (centres unmarked) [Example B383, 2-[5-(2-fluoropyridin-3-yl)-1,3-benzothiazol-2-yl]-2-methanesulfonyl-N-(2-sulfamoylethyl)acetamide]
IC50 (Endothelial lipase (EL)): 0.7 nM | IC50 (hepatic lipase (HL)): 13 nM

Cn1nccc1-c1ccc2sc(C(C(=O)NCCS(N)(=O)=O)S(C)(=O)=O)nc2c1 (centres unmarked) [Example B384, 2-methanesulfonyl-2-[5-(1-methyl-1H-pyrazol-5-yl)-1,3-benzothiazol-2-yl]-N-(2-sulfamoylethyl)a-cetamide]
IC50 (Endothelial lipase (EL)): 8.2 nM | IC50 (hepatic lipase (HL)): 828 nM

CS(=O)(=O)C(C(=O)NCCS(N)(=O)=O)c1nc2cc(-c3ccc(F)nc3F)ccc2s1 (centres unmarked) [Example B385, 2-[5-(2,6-difluoropyridin-3-yl)-1,3-benzothiazol-2-yl]-2-methanesulfonyl-N-(2-sulfamoylethyl)a-cetamide]
IC50 (Endothelial lipase (EL)): 3.5 nM | IC50 (hepatic lipase (HL)): 20.5 nM

CC(C)(C)OC(=O)c1ccc(-c2ccc3nc(C(C(=O)N[C@@H]4CCNC4=O)S(=O)(=O)Cc4ccccc4)sc3c2)cc1 (stereo partly drawn) [Example B386, tert-butyl 4-[2-({[(3R)-2-oxopyrrolidin-3-yl]carbamoyl}(phenyl-methanesulfonyl)methyl)-1,3-benzothiazol-6-yl]benzoate]
IC50 (Endothelial lipase (EL)): 17.1 nM | IC50 (hepatic lipase (HL)): 14.3 nM

CC(C)(O)Cn1ccc(-c2ccc3sc(C(C(=O)NCCS(N)(=O)=O)S(C)(=O)=O)nc3c2)cc1=O (centres unmarked) [Example B389, 2-{5-[1-(2-hydroxy-2-methylpropyl)-2-oxo-1,2-dihydropyridin-4-yl]-1,3-benzothiazol-2-yl}-2-methanesulfonyl-N-(2-sulfamoylethyl)acetamide]
IC50 (Endothelial lipase (EL)): 2 nM | IC50 (hepatic lipase (HL)): 6300 nM

CC(C)(O)Cn1cc(-c2ccc3sc(C(C(=O)NCCS(N)(=O)=O)S(C)(=O)=O)nc3c2)ccc1=O (centres unmarked) [Example B390, 2-{5-[1-(2-hydroxy-2-methylpropyl)-6-oxo-1,6-dihydropyridin-3-yl]-1,3-benzothiazol-2-yl}-2-methanesulfonyl-N-(2-sulfamoylethyl)acetamide]
IC50 (Endothelial lipase (EL)): 3.5 nM | IC50 (hepatic lipase (HL)): 10000 nM

CC(C)(C)OC(=O)c1ccc2sc(C(C(=O)NCCS(N)(=O)=O)S(C)(=O)=O)nc2c1 (centres unmarked) [Example B391, tert-Butyl 2-(1-(methylsulfonyl)-2-oxo-2-((2-sulfamoylethyl)amino)ethyl)-1,3-benzothiazole-5-carboxylate]
IC50 (Endothelial lipase (EL); [1]): 25 nM | IC50 (hepatic lipase (HL); [2]): 53.4 nM

CS(=O)(=O)C(C(=O)NCCS(N)(=O)=O)c1nc2cc(C(=O)O)ccc2s1 (centres unmarked) [Example B392, 2-(1-(Methylsulfonyl)-2-oxo-2-((2-sulfamoylethyl)amino)ethyl)benzo[d]thiazole-5-carboxylic acid]
IC50 (Endothelial lipase (EL); [1]): 3.1 nM | IC50 (hepatic lipase (HL); [2]): 92.7 nM

CS(=O)(=O)C(C(=O)NCCS(N)(=O)=O)c1nc2cc(C(=O)N3CC(F)(F)C3)ccc2s1 (centres unmarked) [Example B393, 2-[5-(3,3-difluoroazetidine-1-carbonyl)-1,3-benzothiazol-2-yl]-2-methanesulfonyl-N-(2-sulfamoylethyl)acetamide]
IC50 (Endothelial lipase (EL)): 50.3 nM | IC50 (hepatic lipase (HL)): 5750 nM

CS(=O)(=O)C(C(=O)NCCS(N)(=O)=O)c1nc2cc(C(=O)NCCc3ccc(F)cc3)ccc2s1 (centres unmarked) [Example B394, N-[2-(4-fluorophenyl)ethyl]-2-{methanesulfonyl[(2-sulfa-moylethyl)carbamoyl]meth-yl}-1,3-benzothiazole-5-carboxamide]
IC50 (Endothelial lipase (EL)): 37.4 nM | IC50 (hepatic lipase (HL)): 1600 nM

CS(=O)(=O)C(C(=O)NCCS(N)(=O)=O)c1nc2ccc(-c3nnc(-c4ccc(F)cc4)o3)cc2s1 (centres unmarked) [Example B395, 2-(6-(5-(4-Fluorophenyl)-1,3,4-oxadiazol-2-yl)benzo[d]thiazol-2-yl)-2-(methylsulfonyl)-N-(2-sulfamoylethyl)acetamide]
IC50 (Endothelial lipase (EL); [1]): 148 nM | IC50 (hepatic lipase (HL); [2]): 275 nM

CCNC(=O)CNC(=O)C(c1nc2ccc(-c3ccc(F)nc3)cc2s1)S(=O)(=O)CCOC (centres unmarked) [Example B397, N-[(ethylcarbamoyl)methyl]-2-[6-(6-fluoropyridin-3-yl)-1,3-benzothiazol-2-yl]-2-(2-methoxyethanesulfonyl)acetamide]
IC50 (Endothelial lipase (EL); [1]): 109 nM | IC50 (hepatic lipase (HL); [2]): 460 nM
